# Assay results: patent publication US7465736B2, “Azole methylidene cyanide derivatives and their use as protein kinase modulators” (Laboratoires Serono S.A., priority 2002, dated 2008)
# How the values were obtained:
# rat JNK3 = rat JNK3 (Rattus norvegicus, UniProt P49187); assay: JNK3 in vitro assay (33P incorporation into biotinylated GST-c-Jun, SPA beads); format: biochemical; conditions: in vitro potency on rat JNK3
# Protocol: The compounds of the present invention are inhibitors of JNKs. The phosphorylation of c-jun by JNK2 or JNK3 may be determined by monitoring the incorporation of ^33P into c-jun following the protocol below. The inhibitory activity of the compounds according to formula I, towards c-jun phosphorylation through JNK, is determined by calculating phosphorylation activity in the presence or absence of compounds according to formula I.
# JNK3 and/or -2 assays are performed in 96 well MTT plates: incubation of 0.5 μg of recombinant, pre-activated GST-JNK3 or GST-JNK2 with 1 μg of recombinant, biotinylated GST-c-Jun and 2 μM ^33γ-ATP (2 nCi/μl), in the presence or absence of compounds according to formula I and in a reaction volume of 50 μl containing 50 mM Tris-HCl, pH 8.0; 10 mM MgCl2; 1 mM Dithiothreitol, and 100 μM NaVO4. The test compound according to formula I is used in concentrations of 10, 3, 033, 0.1, 0.033, 0.01, 0.0033, 0.001 μM. The incubation is performed for 120 min. at R.T and stopped upon addition of 200 μl of a solution containing 250 μg of Streptavidine-coated SPA beads (Amersham, Inc.)*, 5 mM EDTA, 0.1% Triton X-100 and 50 μM ATP, in phosphate saline buffer.
# After incubation for 60 minutes at RT, beads are sedimented by centrifugation at 1500×g for 5 minutes, resuspended in 200 μl of PBS containing 5 mM EDTA, 0.1% Triton X-100 and 50 μM ATP and the radioactivity measured in a scintillation β counter, following sedimentation of the beads as described above.
# human GSK3 β = human GSK3 β (Homo sapiens, UniProt P49841); assay: GSK3β in vitro assay (33P incorporation into phospho GS2 peptide, scintillation counting); format: biochemical; conditions: in vitro potency on human GSK3 β
# Protocol: GSK3β Assay (see Naerum et al., Bioorg. Med. Chem. Lett 12 p. 1525-1528 (2002))
# In a final reaction volume of 25 μl, the protein kinase GSK3β (h) (5-10 mU) is incubated with 8 mM MOPS at a pH of 7.0, in 0.2 mM EDTA, as well as 20 μM of the peptide […](p)EDEEE (SEQ ID NO: 1; a phosphor GS2 peptide being the GSK3 substrate in this assay), 10 mM Mg Acetate and [γ-^33P-ATP] (Specific activity approx. 500 cpm/pmol, concentration as required). The reaction is initiated by the addition of Mg^2+[γ-^33P-ATP]. The test compound according to formula I is used in concentrations of 100, 25, 5, 1.25, 0.315, 0.078, 0.0195, 0.0049, 0.0012, 0.00031 μM. After incubations for 40 minutes at room temperature, the reaction is stopped by the addition of 5 μl of a 3% phosphoric acid solution. 10 μl of the reaction is then spotted onto a P30 filtermat and washed three times for 5 minutes in 50 mM phosphoric acid and once in methanol prior to drying and the degree of phosphorylation of the substrate is determined by scintillation counting.
# Chain of rat JNK3 (P49187 whole entry): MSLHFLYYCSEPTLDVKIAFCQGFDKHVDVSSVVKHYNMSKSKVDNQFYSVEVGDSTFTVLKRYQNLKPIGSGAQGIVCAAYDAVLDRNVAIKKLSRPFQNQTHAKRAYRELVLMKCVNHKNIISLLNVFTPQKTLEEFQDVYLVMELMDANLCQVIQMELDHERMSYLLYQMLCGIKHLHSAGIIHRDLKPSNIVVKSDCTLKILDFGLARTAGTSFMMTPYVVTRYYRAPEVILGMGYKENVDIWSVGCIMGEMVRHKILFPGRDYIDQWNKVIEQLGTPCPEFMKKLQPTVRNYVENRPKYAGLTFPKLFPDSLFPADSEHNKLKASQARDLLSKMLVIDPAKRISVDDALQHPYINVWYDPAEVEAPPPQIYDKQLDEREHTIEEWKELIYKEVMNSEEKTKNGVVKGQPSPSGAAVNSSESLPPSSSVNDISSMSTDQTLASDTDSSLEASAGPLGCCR
# Chain of human GSK3 β (P49841 whole entry): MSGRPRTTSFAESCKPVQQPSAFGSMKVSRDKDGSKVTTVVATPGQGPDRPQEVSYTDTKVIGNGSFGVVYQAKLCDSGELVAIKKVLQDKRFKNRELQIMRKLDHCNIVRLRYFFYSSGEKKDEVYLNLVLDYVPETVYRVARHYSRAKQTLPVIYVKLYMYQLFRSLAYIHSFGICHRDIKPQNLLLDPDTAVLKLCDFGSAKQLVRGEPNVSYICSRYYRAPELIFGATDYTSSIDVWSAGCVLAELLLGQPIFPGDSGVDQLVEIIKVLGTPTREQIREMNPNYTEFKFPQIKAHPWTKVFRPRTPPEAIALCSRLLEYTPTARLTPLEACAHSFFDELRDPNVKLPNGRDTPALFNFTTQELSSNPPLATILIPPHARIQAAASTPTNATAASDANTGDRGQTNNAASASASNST
IC50 (rat JNK3),IC50 (human GSK3 β),SMILES
< 10 µM,,CCC1=CS/C(=C(/C#N)c2ccnc(NC3CCN(S(C)(=O)=O)CC3)n2)N1
< 10 µM,< 10 µM,"N#C/C(=C1\NC(C(=O)O)=CS1)c1ccnc(NCCCN2CCCC2=O)n1 [2-[cyano(2-{[3-(2-oxopyrrolidin-1-yl)propyl]amino}pyrimidin-4-yl)methylene]-2,3-dihydro-1,3-thiazole-4-carboxylic acid]"
< 10 µM,< 10 µM,"CCC1=CS/C(=C(/C#N)c2ccnc(NCCc3ccc(S(N)(=O)=O)cc3)n2)N1 [4-[2-({4-[cyano(4-ethyl-1,3-thiazol-2(3H)-ylidene)methyl]pyrimidin-2-yl}amino)ethyl]benzenesulfonamide]"
< 10 µM,,"N#C/C(=C1\NC(c2ccccc2)=CS1)c1ccnc(NCCNc2ccc(C#N)cn2)n1 [6-{[2-({4-[cyano(4-phenyl-1,3-thiazol-2(3H)-ylidene)methyl]pyrimidin-2-yl}amino)ethyl]amino}nicotinonitrile]"
,< 10 µM,"CC1=CS/C(=C(/C#N)c2ccnc(N3CCC(Nc4ncccn4)CC3)n2)N1 [(4-methyl-1,3-thiazol-2(3H)-ylidene){2-[4-(pyrimidin-2-ylamino)piperidin-1-yl]pyrimidin-4-yl}acetonitrile]"
,< 10 µM,"N#C/C(=C1\NC(c2ccccc2Cl)=CS1)c1ccnc(NC2CC2)n1 [[4-(2-chlorophenyl)-1,3-thiazol-2(3H)-ylidene][2-(cyclopropylamino)pyrimidin-4-yl]acetonitrile]"
,< 10 µM,"CN(C)c1nc(/C(C#N)=C2/NC(c3ccccc3)=CS2)nc(N2CCCC3CCCCC32)n1 (centres unmarked) [[4-(dimethylamino)-6-(octahydroquinolin-1(2H)-yl)-1,3,5-triazin-2-yl](4-phenyl-1,3-thiazol-2(3H)-ylidene)acetonitrile]"
,< 10 µM,"CC1=CS/C(=C(/C#N)c2cc(NCc3ccco3)ncn2)N1 [{6-[(2-furylmethyl)amino]pyrimidin-4-yl}(4-methyl-1,3-thiazol-2(3H)-ylidene)acetonitrile]"
,< 10 µM,"CC1=CS/C(=C(/C#N)c2cc(N(C)c3ccccc3)nc(NCCc3cccnc3)n2)N1 [{6-[methyl(phenyl)amino]-2-[(2-pyridin-3-ylethyl)amino]pyrimidin-4-yl}(4-methyl-1,3-thiazol-2(3H)-ylidene)acetonitrile]"
